Values after ≈ are worked out from the molar mass of the structure shown. Values joined by “and” are separate entries in the source; they are usually repeats but may differ in a detail not shown here. Equal entries are not always repeated. Values belong to the compound of their own block, whether it stands above or below them.
Assays:
[1] = Stability of process solutions / solid on drying over days (HPLC area %); format: physicochemical
[2] = Solubility data in solvents; format: physicochemical; details: for solubility: organic solvent or mixture

SMILES: COc1c(Cl)cccc1N=C=S [Compound 1, 1-chloro-3-isothiocyanato-2-methoxybenzene]
Area % after hold ([1]; IPAC solution, 40 ± 5 C., 1 d): 96.0 A %
Area % after hold ([1]; IPAC solution, 40 ± 5 C., 2 d): 95.9 A %
Area % after hold ([1]; IPAC solution, 40 ± 5 C., 3 d): 94.3 A %
Area % after hold ([1]; IPAC solution, 50 ± 5 C., 1 d): 95.5 A %
Area % after hold ([1]; IPAC solution, 50 ± 5 C., 2 d): 94.7 A %
Area % after hold ([1]; IPAC solution, 50 ± 5 C., 3 d): 90.5 A %

solubility ([2]; solvent ACN): 33 mg/mL (≈ 79.9 mM)
solubility ([2]; solvent DCM): > 200 mg/mL
solubility ([2]; solvent EtOAc): 100 mg/mL (≈ 242 mM)
solubility ([2]; solvent EtOH): < 5 mg/mL
solubility ([2]; solvent MTBE): 28 mg/mL (≈ 67.8 mM)
solubility ([2]; solvent MeOH): 5 mg/mL (≈ 12.1 mM)
solubility ([2]; solvent n-heptane): < 5 mg/mL
Area % after hold ([1]; IPAC solution pH = 5-6, 20 ± 5 C., 0 d): 90.1 A %
Area % after hold ([1]; IPAC solution pH = 5-6, 20 ± 5 C., 1 d): 89.8 A %
Area % after hold ([1]; IPAC solution pH = 5-6, 20 ± 5 C., 3 d): 90.9 A %
Area % after hold ([1]; IPAC solution, 25 ± 5 C., 0 d): 87.3%
Area % after hold ([1]; IPAC solution, 25 ± 5 C., 1 d, listed as Comp. 2): 88.7% and 86.0%
Area % after hold ([1]; IPAC solution, 25 ± 5 C., 2 d, listed as Comp. 2): 86.5% and 85.6%
Area % after hold ([1]; IPAC solution, 25 ± 5 C., 3 d, listed as Comp. 2): 85.2% and 83.5%
Area % after hold ([1]; IPAC solution, 40 ± 5 C., 0 d): 90.1 A %
Area % after hold ([1]; IPAC solution, 40 ± 5 C., 1 d, listed as Comp. 2): 88.6 A % and 87.7 A %
Area % after hold ([1]; IPAC solution, 40 ± 5 C., 3 d, listed as Comp. 2): 84.7 A % and 80.0%
Area % after hold ([1]; on drying, 45 ± 5 C., 0 d): 99.7 A %
Area % after hold ([1]; on drying, 45 ± 5 C., 3 d): 99.8%
SMILES: COc1c(Cl)cccc1NC(=S)C1=C(O)CCN(C(=O)OC(C)(C)C)C1=O [Compound 2, tert-butyl 5-((3-chloro-2-methoxyphenyl)carbamothioyl)-4-hydroxy-6-oxo-3,6-dihydropyridine-1(2H)-carboxylate]

solubility ([2]; solvent ACN): 33 mg/mL (≈ 60.2 mM)
solubility ([2]; solvent DCM): > 125 mg/mL
solubility ([2]; solvent EtOAc): 6.25 mg/mL (≈ 11.4 mM)
solubility ([2]; solvent EtOH): 6.25 mg/mL (≈ 11.4 mM)
solubility ([2]; solvent MTBE): 6.25 mg/mL (≈ 11.4 mM)
solubility ([2]; solvent MeOH): 7.1 mg/mL (≈ 13 mM)
solubility ([2]; solvent n-heptane): < 5 mg/mL
solubility ([2]; solvent toluene): < 5 mg/mL
SMILES: COc1c(Cl)cccc1Nc1c(-c2ccncc2Br)[nH]c2c1C(=O)N(C(=O)OC(C)(C)C)CC2 [Compound 101, tert-butyl 2-(3-bromopyridin-4-yl)-3-((3-chloro-2-methoxyphenyl)amino)-4-oxo-1,4,6,7-tetrahydro-5H-pyrrolo[3,2-c]pyridine-5-carboxylate]

solubility ([2]; solvent 2-MeTHF): 5 mg/mL (≈ 11.2 mM)
solubility ([2]; solvent DMAC): > 200 mg/mL
solubility ([2]; solvent DMF): > 100 mg/mL
solubility ([2]; solvent DMSO): > 100 mg/mL
solubility ([2]; solvent HFIP): 94 mg/mL (≈ 210 mM)
solubility ([2]; solvent MeCN): 2 mg/mL (≈ 4.47 mM)
solubility ([2]; solvent NMP): > 100 mg/mL
solubility ([2]; solvent TFE): 79 mg/mL (≈ 176 mM)
solubility ([2]; solvent THE): 31 mg/mL (≈ 69.2 mM)
SMILES: COc1c(Cl)cccc1Nc1c(-c2ccncc2Br)[nH]c2c1C(=O)NCC2 [Compound 102, 2-(3-bromopyridin-4-yl)-3-((3-chloro-2-methoxyphenyl)amino)-1,5,6,7-tetrahydro-4H-pyrrolo[3,2-c]pyridin-4-one]
Dissolution in crystallization solvents ([2]; 5 V of DCM, MeCN, MTBE, THF, MeOH, EtOAc or toluene at reflux): has not been dissolved in all these solvents at reflux except for THE

From patent publication US20250197391A1, “METHODS OF SYNTHESIZING EGFR INHIBITORS” (Scorpion Therapeutics, Inc., priority 2022, published 2025)
